Source: patent US6395759B1, “Substituted benzamide derivatives and pharmaceutical compositions containing them” (SmithKline Beecham p.l.c., priority 1999, dated 2002)

Tests used:
[1] = test system: electrically-induced seizures in mice; experiment: Maximal electroshock seizure threshold (MEST) test; assay type: in vivo; conditions: 10 mg/kg po, suspension in methyl cellulose, one hour post dosing
Method: The maximal electroshock seizure threshold (MEST) test in rodents is particularly sensitive for detecting potential anticonvulsant properties^1. In this model, anticonvulsant agents elevate the threshold to electrically-induced seizures whilst proconvulsants lower the seizure threshold.
Mice (naive, male, Charles River, U.K. CD-1 strain, 25-30 g) are randomly assigned to groups of 10-20 and dosed orally or intraperitoneally at a dose volume of 10 ml/kg with various doses of compound (0.3-300 mg/kg) or vehicle. Mice are then subjected at 30 or 60 min post dose to a single electroshock (0.1 sec, 50 Hz, sine wave form) administered via corneal electrodes. The mean current and standard error required to induce a tonic seizure in 50% (CC50) of the mice in a particular treatment group is determined by the ‘up and down’ method of Dixon and Mood (1948)^2. Statistical comparisons between vehicle- and drug-treated groups are made using the method of Litchfield and Wilcoxon (1949)^3.
In control animals the CC50 is usually 14-18 mA. […] If a tonic convulsion does occur, then the current is decreased, and so on until all the animals in the group have been tested.
The percentage increase or decrease in CC50 for each group compared to the control is calculated. […]

[2] = target: novel receptor obtainable from rat forebrain tissue; experiment: [3H]-Compound A radioligand binding assay; conditions: competition with [3H]-Compound A (20 nM)
Method: WO 92/22293 (SmithKline Beecham) discloses compounds having anti-convulsant activity, including inter alia the compound trans-(+)-6-acetyl-4S-(4-fluorobenzoylamino)-3,4-dihydro-2,2-dimethyl-2H-1-benzopyran-3R-ol (hereinafter referred to as Compound A). […] The affinity of test compounds to the novel receptor site is assessed as follows.
Whole forebrain tissue is obtained from rats. The tissue is first homogenised in buffer (usually 50 mM Tris/HCl, pH 7.4). The homogenised tissue is washed by centrifugation and resuspension in the same buffer, then stored at −70° C. until used.
To carry out the radioligand binding assay, aliquots of tissue prepared as above (usually at a concentration of 1-2 mg protein/ml) are mixed with aliquots of [3H]-Compound A dissolved in buffer. The final concentration of [3H]-Compound A in the mixture is usually 20 nM. The mixture is incubated at room temperature for 1 hour. [3H]-Compound A bound to the tissue is then separated from unbound [3H]-Compound A by filtration through Whatman GF/B glass fibre filters. The filters are then washed rapidly with ice-cold buffer. The amount of radioactivity bound to the tissue trapped on the filters is measured by addition of liquid scintillation cocktail to the filters followed by counting in a liquid scintillation counter. […]

- pKi value [2]: greater than 7
SMILES: COc1cc(C(C)(C)C)ccc1C(=O)Nc1cccc(C2CCCN2)c1 (racemic) [Example 1, (±)-4-tert-Butyl-2-methoxy-N-(3-pyrrolidin-2-yl-phenyl)-benzamide, monohydroclhloride]
- increase in seizure threshold (CC50) compared to control [1]: 53%
